Laboratory results reported in patent US20260374818A1, “CATIONIC PEPTIDES WITH BROAD SPECTRUM ACTIVITY” (priority 2023, published 2026).
Where a SMILES comes first, the peptide text is derived from it. [ ]: non-standard residue; d: D form.

Experiments:
[1] = tested on: MRSA USA300 biofilms; assay: Biofilm inhibition by >95% pure peptides (crystal violet), MRSA; format: cell-based, methicillin resistant Staphylococcus aureus; conditions: for IC50: MRSA, 24 hours
[2] = tested on: MRSA preformed biofilms; assay: Biofilm eradication of 24-hr preformed biofilms (TTC metabolic dye), MRSA; format: cell-based, methicillin resistant Staphylococcus aureus; conditions: 24-hr preformed biofilms treated overnight
[3] = tested on: MRSA biofilms on human skin organoid; assay: Skin organoid biofilm infection model, peptide solution, MRSA; format: cell-based, methicillin resistant Staphylococcus aureus; conditions: peptide solution 4 hrs (FIG. 3A)
[4] = tested on: PAO1 biofilms on human skin organoid; assay: Skin organoid biofilm infection model, peptide solution, PAO1; format: cell-based, Pseudomonas aeruginosa; conditions: peptide solution 4 hrs (FIG. 3B)
[5] = tested on: MRSA biofilms on N/TERT epithelial skin; assay: Skin organoid biofilm model, peptide-loaded collagen dressings, MRSA; format: cell-based, methicillin resistant Staphylococcus aureus; conditions: compared to DJK-5 and ciprofloxacin
[6] = tested on: P. aeruginosa biofilms on N/TERT epithelial skin; assay: Skin organoid biofilm model, peptide-loaded collagen dressings, P. aeruginosa; format: cell-based, Pseudomonas aeruginosa; conditions: compared to DJK-5 and ciprofloxacin
[7] = tested on: P. aeruginosa LESB58; assay: Murine model of abscess infections; format: in vivo, murine; Pseudomonas aeruginosa
[8] = Peptide aggregation in RPMI + 10% FBS with PBMCs (microscopy); format: physicochemical; conditions: 50 μg/ml, overnight
Description: Peptide Aggregation: Peptide aggregation was assessed qualitatively by examining samples of peptides mixed with PBMCs following overnight incubation at 37 °C and 5% CO2. All samples were prepared in RPMI media containing 10% FBS the same manner as the cytotoxicity assays described above. Visualization of aggregates was done using a Nikon Eclipse TS100 Inverted Microscope at 10× magnification.
In aggregation studies, peptides were added to PBMCs in RPMI media containing 10% FBS and incubated overnight at 37 °C in 5% CO2.
The peptides were also evaluated for their tendency to aggregate when added to RPMI tissue culture media containing 10% fetal bovine serum in the presence of PBMCs. Peptides were added to PBMCs in RPMI media containing 10% FBS and incubated overnight at 37 °C in 5% CO2. […] Compared to a highly aggregation prone peptide, 1018 [Haney, E. F., et al. (2017). Aggregation and its influence on the immunomodulatory activity of synthetic innate defense regulator peptides.
As with the DJK-5 derivatives above, the AB103-D derivatives were evaluated for their tendency to aggregate when added to RPMI tissue culture media containing 10% fetal bovine serum in the presence of PBMCs. Peptides were added to PBMCs in RPMI media containing 10% FBS and incubated overnight at 37 °C in 5% CO2.

[9] = tested on: 3-day-old oral plaque (multispecies) biofilms; assay: Oral plaque biofilm model, long-term (1-3 days) exposure, dead cell volume; format: cell-based; conditions: daily for 3 days, compared to DJK5 (FIG. 16A)
[10] = tested on: P. aeruginosa PAO1 biofilms; conditions: for IC50: read-out: Biofilm Inhibition IC50, PAO1, 24 hours
[11] = tested on: PAO1 preformed biofilms; conditions: for IC50: read-out: Biofilm Eradication IC50, PAO1, 24-hr preformed biofilms treated overnight, TTC
[12] = tested on: peripheral blood mononuclear cells (PBMCs); assay: Cytotoxicity (LDH release), PBMCs
[13] = tested on: N/TERT keratinocytes; assay: Cytotoxicity (LDH release), N/TERT keratinocytes
[14] = tested on: human bronchiolar epithelial cells (HBEs); assay: Cytotoxicity (LDH release), human bronchiolar epithelial cells
[15] = tested on: MRSA USA300; assay: Murine sinusitis model, MRSA; format: in vivo, mouse; methicillin resistant Staphylococcus aureus; conditions: MRSA USA300, 0.1 mg dose, compared to DJK5
Text: (§1) FIGS. 15A-15I show peptides AB101-D, AB102-D and AB103-D compared to DJK5 in a murine sinusitis model of bacterial infections. MRSA USA300, nasal cavity (FIG. 15A) P. aeruginosa LESB58 (FIG. 15B and FIG. 15C, nasal cavity); MRSA USA300, lung tissue (FIG. 15D) P. aeruginosa LESB58 (FIG. 15E and FIG. 15F, lung tissue); and MRSA USA300, weight change (FIG. 15G) P. aeruginosa LESB58 (FIG. 15H and FIG. 15I, weight change).
(§2) A murine sinusitis model of bacterial infections in the nasal cavity of mice [Alford et al. (2021). Murine model of sinusitis infection for screening antimicrobial and immunomodulatory therapies. Frontiers in Cellular and Infection Microbiology., 11, 621081] was used to determine the efficacy of D-amino acid peptides AB101-D, AB102-D and AB103-D compared to DJK5. […]. Treatment was applied either as dropwise administration of a peptide solution (20 μl) to the infected naris of a mouse (FIGS. 15A, 15B, 15D, 15E, 15G, 15H) or peptide was delivered using a Respimat® inhaler device (FIGS. 15C, 15F, 15I). Mice were monitored and weighed once daily for up to three days then euthanized prior to collection of nasal lavage fluid and lung tissue for bacterial enumeration. The limit of detection is shown by the dotted line at log CFU=2. […] Accordingly, the results indicated enhanced efficacy of D-amino acid peptides AB101-D, AB102-D and AB103-D compared to DJK5 in this murine model.

[16] = tested on: P. aeruginosa LESB58; assay: Murine sinusitis model, P. aeruginosa; format: in vivo, mouse; Pseudomonas aeruginosa; conditions: P. aeruginosa LESB58, 0.1 mg dose, compared to DJK5
Text: as §1, §2

[17] = tested on: P. aeruginosa PAO1 biofilms; assay: Biofilm inhibition by SPOT-synthesized AB103-D variants (crystal violet), P. aeruginosa; format: cell-based, Pseudomonas aeruginosa; conditions: P. aeruginosa PAO1, SPOT peptides
[18] = tested on: MRSA USA300 planktonic cells; assay: Planktonic growth inhibition by pure AB103-D derivatives, MRSA; format: cell-based, methicillin resistant Staphylococcus aureus
Description: (§3) The effect of peptide on bacterial and biofilm growth was assessed using the biofilm inhibition assay [Haney, E. F., Trimble, M. J., & Hancock, R. E. W. (2021) FIGS. 20A-20D. Microtiter plate assays to assess antibiofilm activity against bacteria. Nature Protocols, 16(5), 2615-2632]. The effect of peptide on planktonic growth and biofilm growth of MRSA USA300 (FIG. 20A, FIG. 20C) and P. aeruginosa PAO1 (FIGS. 20B, 20D) was assessed and compared to the activity seen for AB103-D (gray stars) and DJK5 (gray open circles). Data shown are the average of three biological replicates. Error bars have been omitted for clarity. […]. The results indicated enhanced antibiofilm and antibacterial activity of AB103-D derivatives compared to DJK5.

[19] = tested on: P. aeruginosa PAO1 planktonic cells; assay: Planktonic growth inhibition by pure AB103-D derivatives, P. aeruginosa; format: cell-based, Pseudomonas aeruginosa
Description: as §3

| SMILES | IC50 [1] [nM] | IC50 [2] [nM] | Antibiofilm activity on skin organoid [3] | Antibiofilm activity on skin organoid [4] | Peptide aggregation [8] | Proportion of dead biofilm cells ([9]; 1 or 5 μg/ml) | IC50 ([10]; crystal violet) [nM] | IC50 [11] [nM] | Cytotoxicity (LDH) [12] | Cytotoxicity (LDH) [13] | Cytotoxicity (LDH) [14] | further results |
| --- | --- | --- | --- | --- | --- | --- | --- | --- | --- | --- | --- | --- |
| CC[C@@H](C)[C@@H](NC(=O)[C@@H](CCCNC(=N)N)NC(=O)[C@H](N)CCCCN)C(=O)N[C@H](CCCNC(=N)N)C(=O)N[C@H](Cc1c[nH]c2ccccc12)C(=O)N[C@@H](C(=O)N[C@@H](C(=O)N[C@H](CC(C)C)C(=O)N[C@H](CCCNC(=N)N)C(=O)N[C@@H](C(=O)N[C@@H](C(=O)N[C@H](CCCNC(=N)N)C(N)=O)[C@H](C)CC)C(C)C)[C@H](C)CC)C(C)C [AB101-D, krirwvilrvir-NH2] (H-[dK][dR][dI][dR][dW][dV][dI][dL][dR][dV][dI][dR]-NH2) | 270 | 1400 | excellent antibiofilm activity | excellent antibiofilm activity | some small aggregates | killed more of the biofilm cells | 1100 | 1900 | low toxicity | low toxicity | low toxicity | Antibiofilm activity from collagen dressing [5]: clearly superior activity to both DJK-5 and ciprofloxacin; Antibiofilm activity from collagen dressing [6]: clearly superior activity to both DJK-5 and ciprofloxacin; Abscess size [7]: reduced abscess size; Proportion of dead biofilm cells ([9]; 10 μg/ml): superior to DJK5 at killing bacteria cells; Biofilm inhibition activity compared to DJK5 ([10]; P. aeruginosa): ≥ 4 fold; Enhanced antibiofilm eradication activity ([11]; P. aeruginosa, compared with DJK5): > 2 fold |
| CC[C@@H](C)[C@@H](NC(=O)[C@@H](CCCNC(=N)N)NC(=O)[C@@H](CCCCN)NC(=O)[C@@H](CCCNC(=N)N)NC(=O)[C@H](NC(=O)[C@H](NC(=O)[C@@H](CCCNC(=N)N)NC(=O)[C@H](NC(=O)[C@H](N)CCCNC(=N)N)C(C)C)C(C)C)[C@H](C)CC)C(=O)N[C@H](CCCNC(=N)N)C(=O)N[C@H](Cc1c[nH]c2ccccc12)C(=O)N[C@@H](C(N)=O)C(C)C [AB102-D, rvrvirkrirwv-NH2] (H-[dR][dV][dR][dV][dI][dR][dK][dR][dI][dR][dW][dV]-NH2) | 150 | 3700 | excellent antibiofilm activity | excellent antibiofilm activity | No appreciable aggregation | killed more of the biofilm cells | 16500 | 23000 | low toxicity | low toxicity | low toxicity | Bacteria in nasal cavity and lungs [15]: reduced the amount of bacteria in the nasal cavity and lungs of mice much more than DJK5 treatment; Bacteria in nasal cavity and lungs [16]: reduced the amount of bacteria in the nasal cavity and lungs of mice much more than DJK5 treatment |
| CC[C@@H](C)[C@@H](NC(=O)[C@@H](CCCNC(=N)N)NC(=O)[C@@H](CCCNC(=N)N)NC(=O)[C@@H](Cc1c[nH]c2ccccc12)NC(=O)[C@@H](CCC(N)=O)NC(=O)[C@H](NC(=O)[C@@H](CCCNC(=N)N)NC(=O)[C@H](NC(=O)[C@H](NC(=O)[C@@H](CCCNC(=N)N)NC(=O)[C@H](NC(=O)[C@H](N)CCCNC(=N)N)C(C)C)C(C)C)[C@H](C)CC)C(C)C)C(N)=O [AB113-D, rvrvirvqwrri] (H-[dR][dV][dR][dV][dI][dR][dV][dQ][dW][dR][dR][dI]-NH2) | – | – | – | – | – | – | – | – | – | – | – | Activity against PAO1 biofilms compared to AB103-D [17]: activity superior to that of AB103-D; minimum inhibitory concentration of peptide that inhibited at least 90% of biofilm growth (MBIC90) ([1]; MRSA USA300 biofilms, >95% pure peptides, 10% TSB + 0.1% glucose): 0.5 µM; Planktonic growth inhibition [18]: among the most active against planktonic cells; Planktonic growth inhibition [19]: among the most active; Biofilm growth inhibition ([10]; P. aeruginosa PAO1 (FIG. 20D)): among the most active; minimum inhibitory concentration of peptide that inhibited at least 90% of biofilm growth (MBIC90) ([10]; P. aeruginosa PAO1 biofilms, >95% pure peptides, crystal violet, BM2 minimal media): 2 µM; More active than AB103-D against PAO1 biofilms ([10]; PAO1, >95% pure peptides): up to 4 fold |
